According to PMC6586010 (Journal of Clinical Pharmacology, 2018):
Read-outs that look alike come from different tables or passages of the source.

Tests used:
CYP3A5 = conditions: human liver microsomes of CYP3A5*1/*1 (EM) donors; cited from earlier work
[1] = assay type: in vivo, human; conditions: part 1
HIV‐1 [2] = test: Study 1; assay type: in vivo; conditions: for subjects who discontinued the study because of lack of efficacy: through week 96, maraviroc
HIV = conditions: viral inhibition; cited from earlier work
HIV‐1 [3] = conditions: 48 weeks, cited from earlier work
HIV‐1 [4] = conditions: study 1; cited from earlier work
[5] = week 48, efavirenz 600 mg once daily + zidovudine/lamivudine, EMs (2 CYP3A5*1 alleles)
[6] = week 48, efavirenz 600 mg once daily + zidovudine/lamivudine, IMs (1 CYP3A5*1 allele)
[7] = week 48, efavirenz 600 mg once daily + zidovudine/lamivudine, PMs (no CYP3A5*1 alleles)
[8] = week 48, efavirenz 600 mg once daily + zidovudine/lamivudine, overall
[9] = week 96, efavirenz 600 mg once daily + zidovudine/lamivudine, EMs (2 CYP3A5*1 alleles)
[10] = week 96, efavirenz 600 mg once daily + zidovudine/lamivudine, IMs (1 CYP3A5*1 allele)
[11] = week 96, efavirenz 600 mg once daily + zidovudine/lamivudine, PMs (no CYP3A5*1 alleles)
[12] = week 96, efavirenz 600 mg once daily + zidovudine/lamivudine, overall
[13] = week 48, maraviroc 300 mg twice daily + zidovudine/lamivudine, EMs (2 CYP3A5*1 alleles)
[14] = week 48, maraviroc 300 mg twice daily + zidovudine/lamivudine, IMs (1 CYP3A5*1 allele)
[15] = week 48, maraviroc 300 mg twice daily + zidovudine/lamivudine, PMs (no CYP3A5*1 alleles)
[16] = week 48, maraviroc 300 mg twice daily + zidovudine/lamivudine, overall
[17] = week 96, maraviroc 300 mg twice daily + zidovudine/lamivudine, EMs (2 CYP3A5*1 alleles)
[18] = week 96, maraviroc 300 mg twice daily + zidovudine/lamivudine, IMs (1 CYP3A5*1 allele)
[19] = week 96, maraviroc 300 mg twice daily + zidovudine/lamivudine, PMs (no CYP3A5*1 alleles)
[20] = week 96, maraviroc 300 mg twice daily + zidovudine/lamivudine, overall

## Cc1nnc(C(C)C)n1C1C[C@H]2CC[C@@H](C1)N2CC[C@H](NC(=O)[C@H]1CCC(F)(F)[C@H](O)C1)c1ccccc1 (stereo partly drawn) [(1S,3R)-3-hydroxymaraviroc, (1S,3R)‐3‐hydroxymaraviroc]
CYP3A5
  CYP3A5 contribution to the formation of this metabolite: minimal
[1]
  mean MRAUC12 across all cohorts: comparable

## (1R,2R)‐2‐hydroxymaraviroc [(1R,2R)-2-hydroxymaraviroc]
CYP3A5
  CYP3A5 contribution to the formation of this metabolite: minimal
[1]
  mean MRAUC12 among black IMs and PMs and white PMs: comparable

## CC(C)c1nnc(CO)n1C1C[C@H]2CC[C@@H](C1)N2CC[C@H](NC(=O)C1CCC(F)(F)CC1)c1ccccc1 (some centres unmarked) [hydroxymethylmaraviroc]
CYP3A5
  CYP3A5 contribution to the formation of this metabolite: 1%

## O=C1Nc2ccc(Cl)cc2[C@@](C#CC2CC2)(C(F)(F)F)O1 [Efavirenz]
HIV‐1 [2]; [5]
  Proportion of subjects with HIV-1 RNA <50 copies/mL: 19/30 (63.3) %
  Proportion of subjects with HIV-1 RNA <400 copies/mL: 20/30 (66.7) %
HIV‐1 [2]; [6]
  Proportion of subjects with HIV-1 RNA <50 copies/mL: 68/96 (70.8) %
  Proportion of subjects with HIV-1 RNA <400 copies/mL: 71/96 (74.0) %
HIV‐1 [2]; [7]
  Proportion of subjects with HIV-1 RNA <50 copies/mL: 113/164 (68.9) %
  Proportion of subjects with HIV-1 RNA <400 copies/mL: 119/164 (72.6) %
HIV‐1 [2]; [8]
  Proportion of subjects with HIV-1 RNA <50 copies/mL: 200/290 (69.0) %
  Proportion of subjects with HIV-1 RNA <400 copies/mL: 210/290 (72.4) %
HIV‐1 [2]; [9]
  Proportion of subjects with HIV-1 RNA <50 copies/mL: 17/30 (56.7) %
  Proportion of subjects with HIV-1 RNA <400 copies/mL: 17/30 (56.7) %
HIV‐1 [2]; [10]
  Proportion of subjects with HIV-1 RNA <50 copies/mL: 62/96 (64.6) %
  Proportion of subjects with HIV-1 RNA <400 copies/mL: 63/96 (65.6) %
HIV‐1 [2]; [11]
  Proportion of subjects with HIV-1 RNA <50 copies/mL: 104/164 (63.4) %
  Proportion of subjects with HIV-1 RNA <400 copies/mL: 107/164 (65.2) %
HIV‐1 [2]; [12]
  Proportion of subjects with HIV-1 RNA <50 copies/mL: 183/290 (63.1) %
  Proportion of subjects with HIV-1 RNA <400 copies/mL: 187/290 (64.5) %

## (1S,3S)‐3‐hydroxymaraviroc [(1S,3S)-3-hydroxymaraviroc]
CYP3A5
  CYP3A5 contribution to the formation of this metabolite: minimal
[1]
  mean MRAUC12 across all cohorts: comparable

## Maraviroc
HIV
  in vivo concentration for 50% inhibition: ~8 ng/mL
HIV‐1 [3]; once-daily maraviroc group
  blacks with viral load <50 copies/mL: 28%
HIV‐1 [3]; twice-daily maraviroc group
  blacks with viral load <50 copies/mL: 26%
HIV‐1 [4]
  Cavg associated with near-maximal virologic efficacy: 75 ng/mL
HIV‐1 [2]; EMs (4/43)
  subjects who discontinued the study because of lack of efficacy: 9.3%
HIV‐1 [2]; IMs (8/85)
  subjects who discontinued the study because of lack of efficacy: 9.4%
HIV‐1 [2]; PMs (25/175)
  subjects who discontinued the study because of lack of efficacy: 14.3%
HIV‐1 [2]; [13]
  Proportion of subjects with HIV-1 RNA <50 copies/mL: 30/43 (69.8) %
  Proportion of subjects with HIV-1 RNA <400 copies/mL: 32/43 (74.4) %
HIV‐1 [2]; [14]
  Proportion of subjects with HIV-1 RNA <50 copies/mL: 53/85 (62.4) %
  Proportion of subjects with HIV-1 RNA <400 copies/mL: 61/85 (71.8) %
HIV‐1 [2]; [15]
  Proportion of subjects with HIV-1 RNA <50 copies/mL: 126/175 (72.0) %
  Proportion of subjects with HIV-1 RNA <400 copies/mL: 132/175 (75.4) %
HIV‐1 [2]; [16]
  Proportion of subjects with HIV-1 RNA <50 copies/mL: 209/303 (69.0) %
  Proportion of subjects with HIV-1 RNA <400 copies/mL: 225/303 (74.3) %
HIV‐1 [2]; [17]
  Proportion of subjects with HIV-1 RNA <50 copies/mL: 23/43 (53.5) %
  Proportion of subjects with HIV-1 RNA <400 copies/mL: 26/43 (60.5) %
HIV‐1 [2]; [18]
  Proportion of subjects with HIV-1 RNA <50 copies/mL: 47/85 (55.3) %
  Proportion of subjects with HIV-1 RNA <400 copies/mL: 52/85 (61.2) %
HIV‐1 [2]; [19]
  Proportion of subjects with HIV-1 RNA <50 copies/mL: 109/175 (62.3) %
  Proportion of subjects with HIV-1 RNA <400 copies/mL: 117/175 (66.9) %
HIV‐1 [2]; [20]
  Proportion of subjects with HIV-1 RNA <50 copies/mL: 179/303 (59.1) %
  Proportion of subjects with HIV-1 RNA <400 copies/mL: 195/303 (64.4) %
HIV‐1 [2]; weeks 48 and 96
  proportions of subjects with HIV-1 RNA <50 and <400 copies/mL among all 3 CYP3A5 genotypes: comparable
